The values that follow come from publication PMC6037852, “Design of Diarylheptanoid Derivatives as Dual Inhibitors Against Class IIa Histone Deacetylase and β-amyloid Aggregation” (Frontiers in Pharmacology, 2018).

As a reminder, the IC50 is the midpoint of a concentration-inhibition curve. The inhibition is the drop in the measured response relative to a control, in per cent.

For one series, the target named is T1, Aβ1-42 (Homo sapiens, UniProt P05067).
T1 construct: Aβ1-42 peptides were purchased from Kelowna International Scientific Inc; purchased Kelowna International Scientific Inc
T1 sequence (P05067 672-713 limits assumed): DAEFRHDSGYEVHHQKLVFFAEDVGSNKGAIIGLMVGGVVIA
Kind of series: Inhibition of Aβ1-42 self-aggregation, thioflavin-T (ThT) fluorescence assay. The format is biochemical. The following applies: 24 h; for IC50: read-out: Beta-Amyloid Aggregation IC50; for inhibition at 10 µM: single concentration of 10 μM, read-out: Beta-Amyloid Aggregation Inhibition (%). On the procedure: Inhibition of Aβ1-42 self-aggregation was measured by thioflavin-T (ThT) fluorescence assay ([Hudson et al., 2009]). Aβ1-42 peptides were purchased from Kelowna International Scientific Inc. To avoid Aβ1-42 self-aggregation before the start of the experiment, Aβ1-42 peptides were dissolved in hexafluoroisopropanol (HFIP) to a concentration of 1 mM. The clear solution containing the dissolved peptide was then aliquoted in micro centrifuge tube. The solution was evaporated under vacuum to remove HFIP to give monomeric Aβ1-42. The monomeric Aβ1-42 was dissolved in NaOH(aq) (60 mM) to give a stock solution (1 mM). The Aβ1-42 stock solution was diluted with 50 mM phosphate buffer (containing 0.15 M NaCl, pH 7.4) before use. Fresh ThT stock solution was prepared by dissolving ThT (Sigma, T3516) in phosphate buffer and filtrated through […] Nylon syringe filter. The ThT stock solution and 400 mM ethylenediaminetetraacetic acid (EDTA) were diluted into the phosphate buffer to generate the working solution as background. A mixture of working solution (ThT final concentration: 10 μM), Aβ1-42 stock solution (Aβ1-42 final concentration: 10 μM) and the tested compounds were incubated on BioShake iQ ThermoMixer (37°C, 700 rpm) for 24 h. Fluorescence was measured by Victor 2X microplate spectrophotometer (excitation λ = 440 nm, emission λ = 486 nm), and adapted for 96-well microtiter plates. The fluorescence intensities were recorded and the percent inhibition due to the presence of the inhibitors were calculated by the following formula: (1 - IFi/IFc) × 100% where IFi and IFc were the fluorescence intensities obtained for Aβ1-42 in the presence and in the absence of inhibitors after subtracting the background, respectively. The IC50 values were calculated by the linear regression model of the data. All experiments were performed in triplicate.

A further series has as its system SH-SY5Y cells. Particulars: 100 μM; ref Luchtman et al., 2013; cited from earlier work.
In series [1] the test system is primary rat mesencephalic neurons. Also noted: method as in Luchtman et al., 2013. Particulars: 100 μM; ref Luchtman et al., 2013; cited from earlier work.

Bounds are passed on as bounds.

As for `O=C(CCCCCCC(=O)Nc1ccccc1)NO` [SAHA, suberoylanilide hydroxamic acid, reference compound], at Aβ1-42, the IC50 is over 10 µM and the inhibition at 10 µM was -13.3 ± 1.8%.
`O=c1c(O)c(-c2ccc(O)cc2O)oc2cc(O)cc(O)c12` [Morin, morin, reference compound]: on Aβ1-42, the 50% inhibitory concentration (IC50) stood at 8.8 ± 0.7 µM and the inhibition at 10 µM turned out to be 56.9 ± 5.9%.
As to `C[n+]1ccc(-c2ccccc2)cc1.[I-]` [1-methyl-4-phenylpyridinium iodide], the “Cell viability of SH-SY5Y cells” value in the series on SH-SY5Y cells is given as 80%. Moreover, in series [1], the “Viability of primary rat mesencephalic neurons” value was “roughly 75%”.
